# Assay results reported in US12098386B2, “Use of germ cells for preparing a micro hair follicle” (L'OREAL, priority 2016, dated 2024).
# Test system: germ cells
# Assay: Culture-amplification of germ cells on 3T3 feeder layer in Green 7F medium with or without ROCK inhibitor
# Format: cell-based
# Description: The germ cell region, called the bulge (FIG. 1), is extracted from the connective tissue sheath (FIG. 2) and then placed in a petri dish containing 3T3i cells (FIG. 3).
# The hair follicles are extracted from a surgical residue of scalp. Said residue is first cut into 5 mm^2 portions and then sectioned using a scalpel between the dermis and the hypodermis.
# The follicles are extracted using ophthalmic surgery forceps and are then sectioned just above the papilla with a scalpel. The bulb is then recovered. At this stage, the bulb comprises two compartments: the dermal compartment (dermal papilla and connective tissue sheath) and the matrix cells which form a cell mass.
# The epithelial part is separated from the dermal part using perfusion needles. Only the epithelial part is cultured.
# The MEM medium+10% FCS+7F (called Green 7F medium) has the following composition:
# After microdissection, the hair follicles in the telogen phase are deposited in Petri dishes 60 mm in diameter, seeded beforehand with 1 million 3T3 cells, and covered with the complete Green 7F culture medium; a culture of germ cells at confluence is obtained.
# The telogen hair with the non-dissociated germ cell clump are isolated and deposited on a 3T3 feeder layer (FIG. 3). After 3 d of culture, the cells begin to proliferate in the form of a colony around the germ clump (FIG. 4). The cells reach subconfluence in 7 days (FIG. 5). […]
structure (smiles),measurement,setting,value
C[C@@H](N)[C@H]1CC[C@H](C(=O)Nc2ccncc2)CC1 [Y27632],"Differentiation of germ cells into marker-positive keratinocytes (K15, CD29, CD200)",germ cells cultured in 7F medium containing the rock inhibitor (FIG. 6),"keratinocytes that are positive for the K15, CD29 and CD200 markers"
same,Proliferation of the germ cells (reaching confluence),"green 7F medium, Y27632 at 10 μM, in the same medium without the rock inhibitor the cells do not proliferate (FIG. 7a/7b)",very rapidly reaching confluence
